# Assay results published in patent US20110144045A1, “USE OF FUMAGILLIN AND THE DERIVATIVES THEREOF TO INCREASE THE BIOAVAILABILITY OF THE MACROCYCLIC LACTONES” (INSTITUT NATIONAL DE LA RECHERCHE AGRONOMIQUE, priority 2005, published 2011).
# Assays:
# murine Pgp = murine Pgp (Mus musculus, UniProt P21447); experiment: Intracellular accumulation of rhodamine 123 in Mdr1a-LLCPK1 cells (Pgp transport function); type: cell-based
# Method: (§1) They are cultured for 48 hours at 37° C. to reach confluence in 1 ml of medium without G418. The medium is eliminated and the cells washed with 0.5 ml PBS 1×. […] The cells are lysed by the addition of 0.3 ml PBS 1×/0.5% sodium dodecyl sulphate (50/50, v/v) in each well. After 10 minutes at ambient temperature, 0.3 ml PBS 1× is added to each well then the total lysate (0.6 ml) is transferred to a 2-ml plastic tube and stored at −20° C. until it is analyzed by spectrofluorometry.
# (§2) The results obtained were modelled according to the Hill model (Scientist software, Micromath research, Saint Louis, USA).
# rat hepatocytes [1] = experiment: Intracellular quantity of 14C moxidectin in primary-cultured rat hepatocytes +/- fumagillin; type: cell-based
# Method: The isolation and culturing of rat hepatocytes has been described previously (Dupuy et al., 2001b). The hepatocytes are distributed into culture dishes and kept at 37° C. for 12 hours (oven 5% CO2). The cells are cultured in the presence of 5 μM ^14C moxidectin (control) +/−100 μM fumagillin. After 0, 6, 24, 48 and 72 h the incubations are stopped (n=3 for each treatment), the media collected and the hepatocytes harvested by mechanical disassociation in phosphate buffer saline (PBS 1×). The media and the hepatocytes are stored at −20° C. until analysis by high-performance liquid chromatography (HPLC).
# ^14C moxidectin is quantified in the medium and the hepatocytes by a HPLC technique coupled with an in-line radioactivity detection (Dupuy et al., 2001b). This technique allows ^14C moxidectin and its main metabolite (C29 monohydroxyethyl moxidectin) in rat hepatocytes to be detected and quantified. The radioactivity is measured by liquid scintillation counting (Kontron Beta V counter). The total initial radioactivity of the initial medium at 5 μM ^14C moxidectin +/−100 μM fumagillin corresponds to the 100% value. Due to the concentration of moxidectin detected in the hepatocytes (ng.ml^−1) and to the initially introduced percentage of radioactivity, the time-concentration areas under the curve are calculated from the first to the last experimental point using the trapezoidal method (Gibaldi and Perrier, 1982).
# murine Pgp (Mdr1a) = murine Pgp (Mdr1a) (Mus musculus, UniProt P21447); experiment: Intracellular accumulation of rhodamine 123 in Mdr1a-LLCPK1 cells (Pgp transport function); type: cell-based; details: mouse, probe rhodamine 123 (10 μM); Hill model; reached at 50 μM of fumagillin; read-out: maximum effect (Emax), Rho123 accumulation as percentage of the VSP effect
# Method: as §1, §2
# rat hepatocytes [2] = details: rat hepatocytes in primary culture; Dupuy et al., 2001b; 2003; cited from earlier work
# Chain of murine Pgp (P21447 whole entry): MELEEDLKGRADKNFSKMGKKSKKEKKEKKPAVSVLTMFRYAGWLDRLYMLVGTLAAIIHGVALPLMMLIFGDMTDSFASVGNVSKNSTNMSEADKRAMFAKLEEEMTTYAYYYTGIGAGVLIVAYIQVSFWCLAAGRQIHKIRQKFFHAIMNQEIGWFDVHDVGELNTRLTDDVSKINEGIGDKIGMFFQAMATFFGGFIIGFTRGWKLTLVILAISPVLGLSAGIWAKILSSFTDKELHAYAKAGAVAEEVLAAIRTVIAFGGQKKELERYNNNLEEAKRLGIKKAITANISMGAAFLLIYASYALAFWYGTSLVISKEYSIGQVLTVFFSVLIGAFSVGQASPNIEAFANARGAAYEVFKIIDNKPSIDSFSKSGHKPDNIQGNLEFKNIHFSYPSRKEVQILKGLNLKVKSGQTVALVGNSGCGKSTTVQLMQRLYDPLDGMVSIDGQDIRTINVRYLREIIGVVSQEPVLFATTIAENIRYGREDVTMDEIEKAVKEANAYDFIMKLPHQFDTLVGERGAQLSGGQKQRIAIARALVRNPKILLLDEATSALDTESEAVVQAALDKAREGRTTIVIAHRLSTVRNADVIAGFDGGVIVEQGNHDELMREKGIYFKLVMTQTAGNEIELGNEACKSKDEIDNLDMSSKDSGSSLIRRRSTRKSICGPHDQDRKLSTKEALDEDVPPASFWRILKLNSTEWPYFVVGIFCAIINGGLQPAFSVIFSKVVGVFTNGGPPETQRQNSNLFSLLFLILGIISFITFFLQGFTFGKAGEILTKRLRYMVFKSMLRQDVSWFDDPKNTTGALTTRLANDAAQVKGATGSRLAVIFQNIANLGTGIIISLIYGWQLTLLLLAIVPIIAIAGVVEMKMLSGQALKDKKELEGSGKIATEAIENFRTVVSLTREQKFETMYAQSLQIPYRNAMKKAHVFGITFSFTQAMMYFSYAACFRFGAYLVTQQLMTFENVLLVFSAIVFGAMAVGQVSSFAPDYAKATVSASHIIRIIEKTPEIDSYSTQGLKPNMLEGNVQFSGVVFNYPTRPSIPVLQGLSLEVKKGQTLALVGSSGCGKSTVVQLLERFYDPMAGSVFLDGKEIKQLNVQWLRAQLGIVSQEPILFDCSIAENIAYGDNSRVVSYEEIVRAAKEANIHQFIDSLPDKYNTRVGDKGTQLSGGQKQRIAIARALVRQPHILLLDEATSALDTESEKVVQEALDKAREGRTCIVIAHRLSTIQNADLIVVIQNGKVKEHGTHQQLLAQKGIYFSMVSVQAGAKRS
# Chain of murine Pgp (Mdr1a) (P21447 whole entry): as above
smiles,measurement,setting,value
"CC[C@H](C)[C@H]1O[C@]2(CC[C@@H]1C)C[C@@H]1C[C@@H](C/C=C(\C)[C@@H](O[C@H]3C[C@H](OC)[C@@H](O[C@H]4C[C@H](OC)[C@@H](O)[C@H](C)O4)[C@H](C)O3)[C@@H](C)/C=C/C=C3\CO[C@@H]4[C@H](O)C(C)=C[C@@H](C(=O)O1)[C@]34O)O2 [IVM, ivermectin]",effect on Rho 123 accumulation relative to the effect of VSP,"murine Pgp; 5 μM IVM, Mdr1a-LLCPK1 cells, 2 h, 10 μM Rho123",95%
"CO/N=C1\C[C@]2(C[C@@H]3C[C@@H](C/C=C(\C)C[C@@H](C)/C=C/C=C4\CO[C@@H]5[C@H](O)C(C)=C[C@@H](C(=O)O3)[C@]45O)O2)O[C@H](/C(C)=C/C(C)C)[C@H]1C [Moxidectin, moxidectin]",time of maximum quantity of intracellular moxidectin,rat hepatocytes [1]; rat,6 h
same,quantity of 14C moxidectin in cultured rat hepatocytes,"rat hepatocytes [1]; rat, 0 h, 5 μM",4.5 ± 1.25
same,quantity of 14C moxidectin in cultured rat hepatocytes,"rat hepatocytes [1]; rat, 6 h, 5 μM",72.95 ± 9.98
same,main metabolite (C29 monohydroxyethyl) as share of the parent substance,"rat hepatocytes [1]; rat, 24 h, 5 μM",≤ 4%
same,quantity of 14C moxidectin in cultured rat hepatocytes,"rat hepatocytes [1]; rat, 24 h, 5 μM",52.60 ± 5.94
same,quantity of 14C moxidectin in cultured rat hepatocytes,"rat hepatocytes [1]; rat, 48 h, 5 μM",22.19 ± 4.00
same,quantity of 14C moxidectin in cultured rat hepatocytes,"rat hepatocytes [1]; rat, 72 h, 5 μM",11.98 ± 1.30
"C/C=C/C[C@@H](C)C(=O)[C@H]1C(=O)N[C@@H](C(C)C)C(=O)N(C)CC(=O)N(C)[C@@H](CC(C)C)C(=O)N[C@@H](C(C)C)C(=O)N(C)[C@@H](CC(C)C)C(=O)N[C@@H](C)C(=O)N[C@H](C)C(=O)N(C)[C@@H](CC(C)C)C(=O)N(C)[C@@H](CC(C)C)C(=O)N(C)[C@@H](C(C)C)C(=O)N1C [VSP, Valspodar]","Rho 123 accumulation, maximum value taken as reference","murine Pgp; VSP 10 μM, considered to be the maximum value by definition",100%
CO[C@@H]1[C@H](OC(=O)/C=C/C=C/C=C/C=C/C(=O)O)CC[C@]2(CO2)[C@H]1[C@@]1(C)O[C@@H]1CC=C(C)C [fumagillin],"Emax at 2 h, 50 μM",murine Pgp (Mdr1a),43.7%
same,EC50,"murine Pgp; Rho123 accumulation in Mdr1a-LLCPK1, Hill model, read-out: EC50, concentration necessary to reach 50% of the maximum effect",10 µM
same,effect on the quantity of intracellular Rho 123,murine Pgp; fumagillin 10 to 100 μM,increased
same,increase of the quantity of moxidectin in the hepatocytes (time-concentration area under the curve),"rat hepatocytes [1]; 100 μM fumagillin with 5 μM 14C moxidectin, over a period of 72 h, versus moxidectin control",65%
CC(=O)N1CCN(c2ccc(OCC3COC(Cn4ccnc4)(c4ccc(Cl)cc4Cl)O3)cc2)CC1 (stereo not drawn) [ketoconazole],effect on the quantity of 14C moxidectin in the hepatocytes of rats,rat hepatocytes [2],significantly increases
O=c1c(O)c(-c2ccc(O)c(O)c2)oc2cc(O)cc(O)c12 [quercetin],effect on the quantity of 14C moxidectin in the hepatocytes of rats,rat hepatocytes [2],significantly increases
